Measured values as given in patent US4450269A, “Mono-5-substituted-3-chloro-4H-1,2,6-thiadiazin-4-one antifungal agents” (FMC Corporation, priority 1980, dated 1984).
Structures can show the parent of a compound that is named as a salt.

Tested on: Cladosporium cucumerinum
Assay: Mycelial growth test
Assay type: cell-based
Conditions: CC; for inhibition at 5 ppm / inhibition at 10 ppm / inhibition at 40 ppm / inhibition at 20 ppm: Cladosporium cucumerinum, read-out: Percent Fungus Growth Inhibition; for inhibition at 5 ppm / inhibition at 10 ppm / inhibition at 40 ppm: 72 h; for inhibition at 20 ppm: CC20, 72 h; for Percent Fungus Growth Inhibition: 72 hours
Text: |CC = Cladosporium cucumerinum

Compound | inhibition at 5 ppm (5 ppm) [%] | inhibition at 10 ppm (10 ppm) [%] | inhibition at 40 ppm (40 ppm) [%] | inhibition at 20 ppm (20 ppm) [%] | Percent Fungus Growth Inhibition (5 ppm) [%] | Percent Fungus Growth Inhibition (10 ppm) [%] | Percent Fungus Growth Inhibition (20 ppm) [%] | Percent Fungus Growth Inhibition (40 ppm) [%] | Percent Fungus Growth Inhibition (5 ppm, hydrochloride) [%] | Percent Fungus Growth Inhibition (10 ppm, hydrochloride) [%] | Percent Fungus Growth Inhibition (40 ppm, hydrochloride) [%]
O=c1c(Cl)nsnc1Oc1ccc(F)cc1 [Compound 11, 3-chloro-5-(4-fluorophenoxy)-4H--1,2,6-thiadiazin-4-one] | 27 | 64 | 100 | 100 | – | – | – | – | – | – | –
CC(=O)c1cccc(Oc2nsnc(Cl)c2=O)c1 [Compound 48, 3-(3-acetylphenoxy)-5-chloro-4H--1,2,6-thiadiazin-4-one] | 29 | 33 | 100 | 50 | – | – | – | – | – | – | –
Cc1cc(Cl)ccc1Oc1nsnc(Cl)c1=O [Compound 55, 3-chloro-5-(4-chloro-2-methylphenoxy)-4H--1,2,6-thiadiazin-4-one] | 0 | 11 | 28 | 22 | – | – | – | – | – | – | –
Cc1cc(Oc2nsnc(Cl)c2=O)cc(C)c1Cl [Compound 59, 3-chloro-5-[(4-chloro-3,5-dimethyl)phenoxy]-4H--1,2,6-thiadiazin-4-one] | 28 | 42 | 61 | 47 | – | – | – | – | – | – | –
CC(=O)c1ccc(Oc2nsnc(Cl)c2=O)cc1 [Compound 47, 3-(4-acetylphenoxy)-5-chloro-4H--1,2,6-thiadiazin-4-one] | 27 | 38 | 77 | 46 | – | – | – | – | – | – | –
Cc1ccc(Oc2nsnc(Cl)c2=O)cc1 [Compound 3, 3-chloro-5-(4-methylphenoxy)-4H--1,2,6-thiadiazin-4-one] | 58 | 67 | 100 | 100 | – | – | – | – | – | – | –
O=c1c(Cl)nsnc1Oc1c(Cl)cc(Cl)cc1Cl [Compound 30, 3-chloro-5-(2,4,6-trichlorophenoxy)-4H--1,2,6-thiadiazin-4-one] | 75 | 100 | 100 | 100 | – | – | – | – | – | – | –
CC(=O)c1ccccc1Oc1nsnc(Cl)c1=O [Compound 49, 3-(2-acetylphenoxy)-5-chloro-4H--1,2,6-thiadiazin-4-one] | 3 | 17 | 64 | 33 | – | – | – | – | – | – | –
O=c1c(Cl)nsnc1Oc1ccc(Cl)c(Cl)c1 [Compound 16, 3-chloro-5-(3,4-dichlorophenoxy)-4H--1,2,6-thiadiazin-4-one] | 58 | 54 | 75 | 67 | – | – | – | – | – | – | –
COc1ccc(Cl)c(Oc2nsnc(Cl)c2=O)c1 [Compound 51, 3-chloro-5-[(2-chloro-5-methoxy)phenoxy]-4H--1,2,6-thiadiazin-4-one] | 8 | 26 | 100 | 85 | – | – | – | – | – | – | –
CC(C)(C)c1ccc(Oc2nsnc(Cl)c2=O)cc1 [Compound 4, 3-chloro-5-(4-tert-butylphnoxy)-4H--1,2,6-thiadiazin-4-one] | 0 | 9 | 45 | 27 | – | – | – | – | – | – | –
CCOC(=O)c1ccc(Oc2nsnc(Cl)c2=O)cc1 [Compound 7, 3-chloro-5-(4-ethoxycarbonylphenoxy)-4H--1,2,6-thiadiazin-4-one] | 9 | 36 | 100 | 100 | – | – | – | – | – | – | –
Cc1ccccc1Oc1nsnc(Cl)c1=O [Compound 22, 3-chloro-5-(2-methylphenoxy)-4H--1,2,6-thiadiazin-4-one] | 31 | 46 | 92 | 69 | – | – | – | – | – | – | –
N#CCc1ccc(Oc2nsnc(Cl)c2=O)cc1 [Compound 46, 3-chloro-5-[(4-cyanomethyl)-phenoxy]4H--1,2,6-thiadiazin-4-one] | 0 | 0 | 100 | 46 | – | – | – | – | – | – | –
O=C(OCc1ccccc1)Oc1ccc(Oc2nsnc(Cl)c2=O)cc1 [Compound 38, 3-chloro-5-[4-(phenylmethoxycarbonyloxy)phenoxyl]-4H-1,2,6-thiadiazin-4-one] | 0 | 0 | 26 | 0 | – | – | – | – | – | – | –
O=c1c(Cl)nsnc1Oc1ccc([N+](=O)[O-])cc1Cl [Compound 53, 3-chloro-5-(2-chloro-4-nitrophenoxy)-4H--1,2,6-thiadiazin-4-one] | 45 | 61 | 65 | 71 | – | – | – | – | – | – | –
Cc1cccc(Oc2nsnc(Cl)c2=O)c1 [Compound 21, 3-chloro-5-(3-methylphenoxy)-4H--1,2,6-thiadiazin-4-one] | 38 | 38 | 85 | 69 | – | – | – | – | – | – | –
O=c1c(Cl)nsnc1Oc1cccc(C(F)(F)F)c1 [Compound 44, 3-chloro-5-[(3-trifluoromethyl)phenoxy]-4H--1,2,6-thiadiazin-4-one] | 36 | 56 | 100 | 92 | – | – | – | – | – | – | –
O=c1c(Cl)nsnc1Oc1ccc([N+](=O)[O-])cc1 [Compound 9, 3-chloro-5-(4-nitrophenoxy)-4H--1,2,6-thiadiazin-4-one] | 54 | 75 | 100 | 92 | – | – | – | – | – | – | –
O=c1c(Cl)nsnc1Oc1ccccc1Cl [Compound 14, 3-chloro-5-(2-chlorophenoxy)-4H--1,2,6-thiadiazin-4-one] | 67 | 50 | 100 | 100 | – | – | – | – | – | – | –

Compound | inhibition at 5 ppm (5 ppm) [%] | inhibition at 10 ppm (10 ppm) [%] | inhibition at 40 ppm (40 ppm) [%] | inhibition at 20 ppm (20 ppm) [%] | Percent Fungus Growth Inhibition (5 ppm) [%] | Percent Fungus Growth Inhibition (10 ppm) [%] | Percent Fungus Growth Inhibition (20 ppm) [%] | Percent Fungus Growth Inhibition (40 ppm) [%] | Percent Fungus Growth Inhibition (5 ppm, hydrochloride) [%] | Percent Fungus Growth Inhibition (10 ppm, hydrochloride) [%] | Percent Fungus Growth Inhibition (40 ppm, hydrochloride) [%]
3-chloro-5-(bromophenoxy)-4H-1,2,6-thiadiazin-4-one [Compound 33] | – | – | – | – | 11 | 28 | 61 | 83 | – | – | –
CC(=O)Nc1ccccc1Oc1nsnc(Cl)c1=O [Compound 43, 3-[(2-acetylamino)-phenoxy]-5-chloro-4H--1,2,6-thiadiazin-4-one] | 0 | 0 | 17 | 6 | – | – | – | – | – | – | –
COc1ccc(Oc2nsnc(Cl)c2=O)cc1 [Compound 5, 3-chloro-5-(4-methoxyphenoxy)4H--1,2,6-thiadiazin-4-one] | 50 | 75 | 100 | 100 | – | – | – | – | – | – | –
COc1cc(Cl)cc(Oc2nsnc(Cl)c2=O)c1 [Compound 52, 3-chloro-5-[(3-chloro-5-methoxy)phenoxy]-4H--1,2,6-thiadiazin-4-one] | 15 | 46 | 77 | 88 | – | – | – | – | – | – | –
O=c1c(Cl)nsnc1Oc1cccc(Cl)c1 [Compound 13, 3-chloro-5-(3-chlorophenoxy)-4H--1,2,6-thiadiazin-4-one] | 58 | 67 | 100 | 100 | – | – | – | – | – | – | –
Cc1cccc(C)c1Oc1nsnc(Cl)c1=O [Compound 24, 3-chloro-5-(2,6-dimethylphenoxy)-4H--1,2,6-thiadiazin-4-one] | 46 | 65 | 100 | 100 | – | – | – | – | – | – | –
O=c1c(Cl)nsnc1Oc1ccccc1 [Compound 2, 3-chloro-5-phenoxy-4H--1,2,6-thiadiazin-4-one] | 46 | 58 | 100 | 100 | – | – | – | – | – | – | –
Cc1cc(Oc2nsnc(Cl)c2=O)cc(C)c1Br [Compound 60, 3-[(4-bromo-3,5-dimethyl)-phenoxy]-5-chloro-4H--1,2,6-thiadiazin-4-one] | 33 | 36 | 47 | 44 | – | – | – | – | – | – | –
Cc1ccc(Cl)c(Oc2nsnc(Cl)c2=O)c1 [Compound 56, 3-chloro-5-[(2-chloro-5-methyl)phenoxy]-4H--1,2,6-thiadiazin-4-one] | 26 | 38 | 100 | 100 | – | – | – | – | – | – | –
Cc1cc(C)cc(Oc2nsnc(Cl)c2=O)c1 [Compound 25, 3-chloro-5-(3,5-dimethylphenoxy)-4H--1,2,6-thiadiazin-4-one] | 27 | 50 | 100 | 77 | – | – | – | – | – | – | –
Nc1ccc(Oc2nsnc(Cl)c2=O)cc1 [Compound 26, 5-(4-aminophenoxy)-3-chloro-4H--1,2,6-thiadiazin-4-one] | 37 | 49 | – | 49 | – | – | – | 77 | – | – | –
O=c1c(Cl)nsnc1Oc1cccc2ccccc12 [Compound 32, 3-chloro-5(1-naphthoxy)-4H-1,2,6-thiadiazin-4-one] | 35 | 46 | 100 | 69 | – | – | – | – | – | – | –
O=C(Nc1ccccc1)Nc1ccc(Oc2nsnc(Cl)c2=O)cc1 [Compound 29, 3-chloro-5-[4-(3-phenylureido)-phenoxy]-4H--1,2,6-thiadiazin-4-one] | 14 | 11 | 31 | 14 | – | – | – | – | – | – | –
O=c1c(Cl)nsnc1Oc1ccccc1Br [Compound 34, 3-chloro-5-(2-bromophenoxy)-4H-1,2,6,-thiadiazin-4-one] | 6 | 28 | 86 | 61 | – | – | – | – | – | – | –
O=c1c(Cl)nsnc1Oc1ccc(Br)cc1 [Compound 15, 3-chloro-5-(4-bromophenoxy)-4H--1,2,6-thiadiazin-4-one] | 9 | 55 | 100 | 82 | – | – | – | – | – | – | –
O=c1c(Cl)nsnc1Oc1c(Cl)c(Cl)c(Cl)c(Cl)c1Cl [Compound 31, 3-chloro-5-(pentachlorophenoxy)-4H--1,2,6-thiadiazine-4-one] | 54 | 57 | 69 | 60 | – | – | – | – | – | – | –
Nc1ccc(Oc2nsnc(Cl)c2=O)cc1 [Compound 27, 5-(4-aminophenoxy)-3-chloro-4H--1,2,6-thiadiazine-4-one hydrochloride] | – | – | – | – | – | – | – | – | 31 | 40 | 54
Cc1ccc(Oc2nsnc(Cl)c2=O)c(C)c1 [Compound 23, 3-chloro-5-(2,4-dimethylphenoxy)-4H--1,2,6-thiadiazin-4-one] | 27 | 38 | 100 | 81 | – | – | – | – | – | – | –
COc1cc(Oc2nsnc(Cl)c2=O)cc(OC)c1C(C)=O [Compound 61, 3-[(4-acetyl-3,5-dimethoxy)-phenoxy]-5-chloro-4H--1,2,6-thiadiazin-4-one] | 6 | 23 | 52 | 32 | – | – | – | – | – | – | –
